According to patent publication US20220402867A1, “SULFO-SUBSTITUTED BIARYL COMPOUND OR SALT THEREOF, PREPARATION METHOD THEREFOR, AND USE THEREOF” (Shanghai Litedd Co., Ltd., priority 2019, published 2022):
pEC50: −log10 of the molar value.

Columns and labels:
[1] = molecular target: T1, GST-RORγ LBD (263-509) (Homo sapiens, UniProt P51449); assay: TR-FRET assay of agonistic activity on RORγ receptor; assay type: biochemical; details: for pEC50: TR-FRET, GST-RORγ LBD with Biotin-SRC1
T1 construct: GST-RORγ LBD ((263-509) (produced at ChemPartner))
T1 sequence (P51449 263-509): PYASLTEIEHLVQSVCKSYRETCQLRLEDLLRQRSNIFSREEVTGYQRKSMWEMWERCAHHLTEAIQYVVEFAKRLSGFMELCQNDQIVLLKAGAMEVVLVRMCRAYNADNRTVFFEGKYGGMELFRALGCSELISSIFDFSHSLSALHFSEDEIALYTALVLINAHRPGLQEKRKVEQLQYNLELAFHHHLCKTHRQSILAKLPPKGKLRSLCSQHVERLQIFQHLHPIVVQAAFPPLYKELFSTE
Outline: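 GST-RORγ LBD (75 nM solution) mixed 1:1 with Biotin-SRC1 (4 nM solution), then with Eu anti-GST and SA-APC; compounds in 10-point 3-fold series from 10 mM stock, duplicate.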

[2] = Metabolic stability in human liver microsomes; assay type: in vitro ADME; details: for microsomal CLint: 0.5 mg protein/mL
Outline: (§1)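 Compound incubated at 37 °C with 0.5 mg protein/mL liver microsomes plus cofactors in PBS, sampled at 0–60 min, quenched with cold acetonitrile and quantified by HPLC-MS/MS (n=3). Half-life and Clint (μL/min/mg) come from the slope of ln(% remaining) versus time.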

[3] = tested on: human PBMC (Th17 cells); assay: Th17 differentiation and IL-17 secretion in human PBMC; assay type: cell-based; details: IL-17 ELISA after 48 hours; for Emax: maximum activation rate
Experimental: Test procedure: PBMC cells were first thawed and plated, and then stimulated with stimulating factors (anti-hCD28: 5 μg/mL; rhTGF-β1: 5 ng/mL; rhIL-6: 20 ng/mL; rhIL-23: 10 ng/Ml) to differentiate to Th17, while adding different concentrations of compounds. All test compounds were serially diluted at 3-fold dilution with DMSO, with 8 serial dilutions starting from the maximum concentration 3 μM. The supermatants were collected after 48 hours for IL-17 ELISA detection, and compared with the solvent group, to determine the activation rate of the compounds on Th17 cells to secrete IL-17. EC50 values were fitted with Graphad8.0, and the TOP values fitted by the software was Emax %.

[4] = molecular target: T2, RORγt (RORγ-LBD chimeric receptor) (Homo sapiens, UniProt P51449); assay: Luciferase reporter gene assay of RORγt agonistic activity in HEK293T cells; assay type: cell-based; design: Emax: dose or concentration left out as unconfirmed; details: for pEC50: HEK293T, GAL4 luciferase reporter, read-out: EC50; for Emax: HEK-293T
T2 construct: host or cells: HEK293T
T2 sequence (P51449 269-508 limits assumed): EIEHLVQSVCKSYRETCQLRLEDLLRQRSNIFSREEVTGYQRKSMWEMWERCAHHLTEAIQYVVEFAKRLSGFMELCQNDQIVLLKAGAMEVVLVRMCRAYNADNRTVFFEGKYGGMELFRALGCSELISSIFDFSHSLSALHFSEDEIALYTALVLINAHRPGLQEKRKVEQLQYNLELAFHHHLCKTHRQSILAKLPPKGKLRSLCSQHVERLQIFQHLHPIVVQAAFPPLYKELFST
Outline: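 EC50 derived from % activity (relative to positive control and vehicle) versus log concentration, using luciferase luminescence in transfected HEK293T cells. The cells carried a RORγ-LBD/GAL4 chimera plus a GAL4-promoter reporter; compounds were 3-fold serially diluted, 10 points from a 10 mM DMSO stock.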

[5] = Metabolic stability in mouse liver microsomes; assay type: in vitro ADME, CD-1 mice; details: for half-life: CD-1; for microsomal CLint: CD-1, 0.5 mg protein/mL
Outline: as §1

[6] = Pharmacokinetic (PK) assay in mice; assay type: in vivo; details: CD-1 mice
Outline: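 Plasma concentrations were quantified by UPLC-MS/MS in EDTA-K2 plasma collected from the saphenous vein over 0–24 h, and PK parameters were derived from them. Two groups of 3 CD-1 mice were used: 5 mg/kg oral gavage (DMSO/1% methylcellulose 1:99) and 1 mg/kg intravenous (5% DMSO/40% PEG400/55% (20% 3-CD)).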

[7] = maximum activation rate, TOP of fitted curve

| SMILES | pEC50 [1] | Emax [1, 7] [%] | half-life [2] [h] | microsomal CLint [2] [µL/min/mg] | % Remaining (T = 60 min) [2] [%] | pEC50 [3] | Emax [3] [%] | pEC50 [4] | Emax [4] [%] | % Remaining (T = 60 min) [5] [%] | half-life [5] [h] | microsomal CLint [5] [µL/min/mg] | further results |
| --- | --- | --- | --- | --- | --- | --- | --- | --- | --- | --- | --- | --- | --- |
| CS(=O)(=O)c1ccc(C(CO)C(=O)Nc2cc(Cl)c(-c3ccc(S(=O)(=O)C4CC4)cc3)c(Cl)c2)cc1 (single isomer, unassigned) [Example 36, (S)—N-(2,6-Dichloro-4′-(cyclopropylsulfonyl)-[1,1′-biphenyl]-4-yl)-2-(4-(methylsulfonyl)phenyl)-3-hydroxypropionamide or (R)—N-(2,6-dichloro-4′-(cyclopropylsulfonyl)-[1,1′-biphenyl]-4-yl)-2-(4-(methylsulfonyl)phenyl)-3-hydroxypropionamide] | 8.37 | 200 | 1.69 | 13.7 | 62.3 | 7.44 | 169 | 7.27 | 71.3 | 83.9 | > 2.42 | < 9.6 | – |
| CCS(=O)(=O)c1ccc(CC(=O)Nc2cc(Cl)c(-c3ccc(S(=O)(=O)C4CC4)cc3)c(Cl)c2)cc1 [Example 6] | 8.43 | 171 | > 2.42 | < 9.6 | 82 | 7.31 | 254 | 7.89 | 42.1 | 78.60 | > 2.42 | < 9.6 | – |
| CCS(=O)(=O)c1ccc(CC(=O)Nc2cc(Cl)c(-c3ccc(S(=O)(=O)C4CC4)cc3)c(Cl)c2)nc1 [Example 21, N-(2,6-Dichloro-4′-(cyclopropylsulfonyl)-1,1′-biphenyl-4-yl)-2-(5-(ethylsulfonyl)pyridin-2-yl)acetamide] | – | – | > 2.42 | < 9.6 | 79.6 | 6.74 | 297 | 7.14 | 51.2 | 56 | 1.33 | 17.3 | CL_obs ([6]; IV 1 mg/kg, values marked **): 4.55** mL/min/kg; AUC(0-t) ([6]; mouse, plasma, IV 1 mg/kg): 3630 ng·h/mL; Cmax ([6]; mouse, plasma, IV 1 mg/kg): 716 ng/mL; half-life ([6]; mouse, plasma, IV 1 mg/kg): 4.19 h; Vd ([6]; mouse, plasma, IV 1 mg/kg, values marked *, read-out: Vss): 1.45 L/kg; bioavailability ([6]; mouse, plasma, Po 5 mg/kg vs IV 1 mg/kg): 30.9%; AUC(0-t) ([6]; mouse, plasma, Po 5 mg/kg): 5630 ng·h/mL; Cmax ([6]; mouse, plasma, Po 5 mg/kg): 611 ng/mL; half-life ([6]; mouse, plasma, Po 5 mg/kg): 3.83 h |
| CCS(=O)(=O)c1ccc(C(CO)C(=O)Nc2cc(Cl)c(-c3ccc(S(=O)(=O)C4CC4)cc3)c(Cl)c2)cc1 (single isomer, unassigned) [Example 38, (S)—N-(2,6-dichloro-4′-(cyclopropylsulfonyl)-[1,1′-biphenyl]-4-yl)-2-(4-(ethylsulfonyl)phenyl)-3-hydroxypropionamide or (R)—N-(2,6-dichloro-4′-(cyclopropylsulfonyl)-[1,1′-biphenyl]-4-yl)-2-(4-(ethylsulfonyl)phenyl)-3-hydroxypropionamide] | 8.23 | 190 | > 2.42 | < 9.6 | 77.2 | 7.64 | 179 | 6.91 | 103 | 70.7 | 1.79 | 12.9 | – |
| COCC(C(=O)Nc1cc(Cl)c(-c2ccc(S(=O)(=O)C3CC3)cc2)c(Cl)c1)c1ccc(S(C)(=O)=O)cc1 (single isomer, unassigned) [Example 34, (S)—N-(2,6-dichloro-4′-(cyclopropylsulfonyl)-[1,1′-biphenyl]-4-yl)-3-methoxy-2-(4-(methylsulfonyl)phenyl)propanamide or (R)—N-(2,6-dichloro-4′-(cyclopropylsulfonyl)-[1,1′-biphenyl]-4-yl)-3-methoxy-2-(4-(methylsulfonyl)phenyl)propanamide] | 8.29 | 191 | 1.48 | 15.6 | 62.4 | 7.24 | 195 | 7.17 | 70.7 | 74.5 | > 2.42 | < 9.6 | – |
| CCS(=O)(=O)c1ccc(C(COC)C(=O)Nc2cc(Cl)c(-c3ccc(S(=O)(=O)C4CC4)cc3)c(Cl)c2)cc1 (single isomer, unassigned) [Example 40, (S)—N-(2,6-dichloro-4′-(cyclopropylsulfonyl)-[1,1′-biphenyl]-4-yl)-2-(4-(ethylsulfonyl)phenyl)-3-methoxypropionamide or (R)—N-(2,6-dichloro-4′-(cyclopropylsulfonyl)-[1,1′-biphenyl]-4-yl)-2-(4-(ethylsulfonyl)phenyl)-3-methoxypropionamide] | 8.00 | – | 2.4 | 9.6 | 71.1 | 7.59 | 224 | 7.03 | 77.5 | 71.8 | 1.95 | 11.8 | Emax % [1, 7]: 199.3% |
